Patent US11419869B2, “Dosage forms and regimens for amino acid compounds” (Pliant Therapeutics, Inc., priority 2019, dated 2022)

Target: recombinant human integrin αvβ6 (Homo sapiens (Human), UniProt P06756+P18564)
Experiment: Solid Phase Integrin αvβ6 Binding Assay (Examples B1, B2)
Conditions: TGFβ1 LAP ligand, values given in four ranges, read-out: αvβ6 Inhibition IC50 (nM)-range
Protocol: (§1) Microplates were coated with recombinant human integrin αvβ6 (2 μg/mL) in PBS (100 μL/well 25° C., overnight). The coating solution was removed, washed with wash buffer (0.05% Tween 20; 0.5 mM MnCl2; in 1×TBS). The plate was blocked with 200 μL/well of Block Buffer (1% BSA; 5% sucrose; 0.5 mM MnCl2; in 1×TBS) at 37° C. for 2 h. Dilutions of testing compounds and recombinant TGFβ1 LAP (0.67 μg/mL) in binding buffer (0.05% BSA; 2.5% sucrose; 0.5 mM MnCl2; in 1×TBS) were added. The plate was incubated for 2 hours at 25° C., washed, and incubated for 1 hour with Biotin-Anti-hLAP. Bound antibody was detected by peroxidase-conjugated streptavidin. The IC50 values for testing compounds were calculated by four-parameter logistic regression.
The compounds tested were compound samples prepared according to procedures described in the Synthetic Examples section, with the stereochemical purity as indicated in the Examples.
as §1, with “A third series of exemplary compounds was selected for testing in the solid phase integrin αvβ6 binding assay. The compounds tested were compound samples prepared according to procedures described in the Synthetic Examples section, with the stereochemical purity as indicated in the Examples. As in Example B1, microplates were coated” for “Microplates were coated”, “calculated by a four-parameter logistic” for “calculated by four-parameter logistic”

Sequence of recombinant human integrin αvβ6 (P06756 31-992): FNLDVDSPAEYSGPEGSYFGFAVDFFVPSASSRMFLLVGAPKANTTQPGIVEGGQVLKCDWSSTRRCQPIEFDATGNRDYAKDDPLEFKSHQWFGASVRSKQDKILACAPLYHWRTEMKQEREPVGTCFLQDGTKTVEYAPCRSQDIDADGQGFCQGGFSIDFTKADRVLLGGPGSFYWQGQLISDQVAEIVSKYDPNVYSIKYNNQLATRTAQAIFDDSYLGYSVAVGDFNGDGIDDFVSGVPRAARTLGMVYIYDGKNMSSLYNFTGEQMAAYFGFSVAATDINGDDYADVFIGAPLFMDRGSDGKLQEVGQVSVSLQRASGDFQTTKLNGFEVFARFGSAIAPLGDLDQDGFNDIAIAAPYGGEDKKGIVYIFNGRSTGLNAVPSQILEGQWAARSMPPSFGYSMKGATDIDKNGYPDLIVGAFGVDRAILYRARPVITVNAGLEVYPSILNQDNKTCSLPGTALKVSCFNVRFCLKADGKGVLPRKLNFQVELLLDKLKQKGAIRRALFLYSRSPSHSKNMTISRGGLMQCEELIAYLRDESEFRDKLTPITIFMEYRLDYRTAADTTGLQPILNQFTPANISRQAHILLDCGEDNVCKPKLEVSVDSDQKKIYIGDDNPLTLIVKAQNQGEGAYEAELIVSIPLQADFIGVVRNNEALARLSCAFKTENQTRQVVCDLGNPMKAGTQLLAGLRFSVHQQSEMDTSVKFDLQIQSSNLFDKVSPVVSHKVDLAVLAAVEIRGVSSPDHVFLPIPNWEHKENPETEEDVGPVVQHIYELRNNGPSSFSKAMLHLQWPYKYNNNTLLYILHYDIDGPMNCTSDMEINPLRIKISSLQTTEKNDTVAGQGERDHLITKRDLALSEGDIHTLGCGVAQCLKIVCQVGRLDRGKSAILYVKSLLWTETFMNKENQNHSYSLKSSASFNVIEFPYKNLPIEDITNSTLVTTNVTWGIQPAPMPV
Sequence of recombinant human integrin αvβ6 (P18564 22-707): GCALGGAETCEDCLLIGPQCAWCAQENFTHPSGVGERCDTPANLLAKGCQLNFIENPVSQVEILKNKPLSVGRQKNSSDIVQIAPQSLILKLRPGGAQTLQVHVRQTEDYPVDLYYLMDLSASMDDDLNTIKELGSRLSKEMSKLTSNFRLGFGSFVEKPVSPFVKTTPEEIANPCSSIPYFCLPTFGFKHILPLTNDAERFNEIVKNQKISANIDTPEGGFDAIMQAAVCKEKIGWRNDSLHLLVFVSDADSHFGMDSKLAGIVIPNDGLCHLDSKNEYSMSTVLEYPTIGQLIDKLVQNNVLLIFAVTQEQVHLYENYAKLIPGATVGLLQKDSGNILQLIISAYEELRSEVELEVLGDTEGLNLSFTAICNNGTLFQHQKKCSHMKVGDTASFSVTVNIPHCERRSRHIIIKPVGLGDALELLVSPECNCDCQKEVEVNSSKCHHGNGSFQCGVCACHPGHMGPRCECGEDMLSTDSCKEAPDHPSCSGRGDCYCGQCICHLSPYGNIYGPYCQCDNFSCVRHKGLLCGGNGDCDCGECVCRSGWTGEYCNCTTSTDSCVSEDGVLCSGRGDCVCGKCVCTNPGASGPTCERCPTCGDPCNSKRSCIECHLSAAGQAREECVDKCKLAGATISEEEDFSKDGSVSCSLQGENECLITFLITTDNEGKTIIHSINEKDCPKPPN

SMILES	IC50 [nM]
O=C(O)[C@H](CCN(CCCCc1ccc2c(n1)NCCC2)C1CC(F)(F)C1)Nc1ncnc2ccccc12 [Compound 9, (S)-4-((3,3-difluorocyclobutyl) (4-(5,6,7,8-tetrahydro-1,8-naphthyridin-2-yl)butyl)amino)-2-(quinazolin-4-ylamino) butanoic acid]	> 1000
COCCN(CCCCc1ccc2c(n1)NCCC2)CC[C@H](Nc1ncnc2cc(F)c(F)cc12)C(=O)O [Compound 21, (S)-2-((6,7-difluoroquinazolin-4-yl)amino)-4-((2-methoxyethyl) (4-(5,6,7,8-tetrahydro-1,8-naphthyridin-2-yl)butyl)amino) butanoic acid]	< 50
COCCN(CCCCc1ccc2c(n1)NCCC2)CC[C@H](Nc1cc(C(F)(F)F)nc(C)n1)C(=O)O [Compound 22, (S)-4-((2-methoxyethyl) (4-(5,6,7,8-tetrahydro-1,8-naphthyridin-2-yl)butyl)amino)-2-((2-methyl-6-(trifluoromethyl)pyrimidin-4-yl)amino) butanoic acid]	< 50
COCCN(CCCCc1ccc2c(n1)NCCC2)CC[C@H](Nc1cc(C(F)F)ncn1)C(=O)O [Compound 23, (S)-2-((6-(difluoromethyl)pyrimidin-4-yl)amino)-4-((2-methoxyethyl) (4-(5,6,7,8-tetrahydro-1,8-naphthyridin-2-yl)butyl)amino) butanoic acid]	< 50
COCCN(CCCCc1ccc2c(n1)NCCC2)CC[C@H](Nc1ccnc(C(F)(F)F)n1)C(=O)O [Compound 24, (S)-4-((2-methoxyethyl) (4-(5,6,7,8-tetrahydro-1,8-naphthyridin-2-yl)butyl)amino)-2-((2-(trifluoromethyl)pyrimidin-4-yl)amino) butanoic acid]	< 50
CO[C@@H](C)CN(CCCCc1ccc2c(n1)NCCC2)CC[C@H](Nc1ncnc2ccccc12)C(=O)O [Compound 25, (S)-4-(((S)-2-methoxypropyl) (4-(5,6,7,8-tetrahydro-1,8-naphthyridin-2-yl)butyl)amino)-2-(quinazolin-4-ylamino) butanoic acid]	< 50
COCCN(CCCCc1ccc2c(n1)NCCC2)CC[C@H](Nc1cc(C)nc(C(F)(F)F)n1)C(=O)O [Compound 26, (S)-4-((2-methoxyethyl) (4-(5,6,7,8-tetrahydro-1,8-naphthyridin-2-yl)butyl)amino)-2-((6-methyl-2-(trifluoromethyl)pyrimidin-4-yl)amino) butanoic acid]	< 50
CS(=O)(=O)CCN(CCCCc1ccc2c(n1)NCCC2)CC[C@H](Nc1ncnc2ccccc12)C(=O)O [Compound 27, (S)-4-((2-(methylsufonyl)ethyl) (4-(5,6,7,8-tetrahydro-1,8-naphthyridin-2-yl)butyl)amino)-2-(quinazolin-4-ylamino) butanoic acid]	< 50
O=C(O)[C@H](CCN(CCCCc1ccc2c(n1)NCCC2)CCOc1ccccc1)Nc1ncnc2ccccc12 [Compound 28, (S)-4-((2-phenoxyethyl) (4-(5,6,7,8-tetrahydro-1,8-naphthyridin-2-yl)butyl)amino)-2-(quinazolin-4-ylamino) butanoic acid]	< 50
O=C(O)[C@H](CCN(CCCCc1ccc2c(n1)NCCC2)CCC(F)F)Nc1ncnc2ccccc12 [Compound 29, (S)-4-((3,3-difluoropropyl) (4-(5,6,7,8-tetrahydro-1,8-naphthyridin-2-yl)butyl)amino)-2-(quinazolin-4-ylamino) butanoic acid]	< 50
O=C(O)[C@H](CCN(CCCF)CCCCc1ccc2c(n1)NCCC2)Nc1ncnc2ccccc12 [Compound 30, (S)-4-((3-fluoropropyl) (4-(5,6,7,8-tetrahydro-1,8-naphthyridin-2-yl)butyl)amino)-2-(quinazolin-4-ylamino) butanoic acid]	< 50
COC[C@@H](F)CN(CCCCc1ccc2c(n1)NCCC2)CC[C@H](Nc1ncnc2ccccc12)C(=O)O [Compound 31, (S)-4-(((S)-2-fluoro-3-methoxypropyl) (4-(5,6,7,8-tetrahydro-1,8-naphthyridin-2-yl)butyl)amino)-2-(quinazolin-4-ylamino) butanoic acid]	< 50
COC[C@@H](F)CN(CCCCc1ccc2c(n1)NCCC2)CC[C@H](Nc1nc(C)nc2cc(F)ccc12)C(=O)O [Compound 32, (S)-2-((7-fluoro-2-methylquinazolin-4-yl)amino)-4-(((S)-2-fluoro-3-methoxypropyl) (4-(5,6,7,8-tetrahydro-1,8-naphthyridin-2-yl)butyl)amino) butanoic acid]	< 50
Cc1nc(N[C@@H](CCN(CCCCc2ccc3c(n2)NCCC3)CC2CC(F)(F)C2)C(=O)O)c2ccc(F)cc2n1 [Compound 33, (S)-4-(((3,3-difluorocyclobutyl)methyl) (4-(5,6,7,8-tetrahydro-1,8-naphthyridin-2-yl)butyl)amino)-2-((7-fluoro-2-methylquinazolin-4-yl)amino) butanoic acid]	< 50

More lines, now with the values ahead:

IC50 [nM]	SMILES
< 50	COCCN(CCCCc1ccc2c(n1)NCCC2)CC[C@H](Nc1ncnc2cc(F)ccc12)C(=O)O [Compound 7, (S)-2-((7-fluoroquinazolin-4-yl)amino)-4-((2-methoxyethyl) (4-(5,6,7,8-tetrahydro-1,8-naphthyridin-2-yl)butyl)amino) butanoic acid]
< 50	COCCN(CCCCc1ccc2c(n1)NCCC2)CC[C@H](Nc1nc(C)nc2ccccc12)C(=O)O [Compound 10, (S)-4-((2-methoxyethyl) (4-(5,6,7,8-tetrahydro-1,8-naphthyridin-2-yl)butyl)amino)-2-((2-methylquinazolin-4-yl)amino) butanoic acid]
< 50	COCCN(CCCCc1ccc2c(n1)NCCC2)CC[C@H](Nc1ncnc2ncccc12)C(=O)O [Compound 11, (S)-4-((2-methoxyethyl) (4-(5,6,7,8-tetrahydro-1,8-naphthyridin-2-yl)butyl)amino)-2-(pyrido[2,3-d]pyrimidin-4-ylamino) butanoic acid]
< 50	COCCN(CCCCc1ccc2c(n1)NCCC2)CC[C@H](Nc1nc(C)nc2cc(F)ccc12)C(=O)O [Compound 12, (S)-2-((7-fluoro-2-methylquinazolin-4-yl)amino)-4-((2-methoxyethyl) (4-(5,6,7,8-tetrahydro-1,8-naphthyridin-2-yl)butyl)amino) butanoic acid]
< 50	COCCN(CCCCc1ccc2c(n1)NCCC2)CC[C@H](Nc1nc(C(F)(F)F)nc2ccccc12)C(=O)O [Compound 14, (S)-4-((2-methoxyethyl) (4-(5,6,7,8-tetrahydro-1,8-naphthyridin-2-yl)butyl)amino)-2-((2-(trifluoromethyl)quinazolin-4-yl)amino) butanoic acid]
< 50	COCCN(CCCCc1ccc2c(n1)NCCC2)CC[C@H](Nc1ncnc2c(C(F)(F)F)cccc12)C(=O)O [Compound 15, (S)-4-((2-methoxyethyl) (4-(5,6,7,8-tetrahydro-1,8-naphthyridin-2-yl)butyl)amino)-2-((8-(trifluoromethyl)quinazolin-4-yl)amino) butanoic acid]
< 50	COCCN(CCCCc1ccc2c(n1)NCCC2)CC[C@H](Nc1ncnc2cccnc12)C(=O)O [Compound 16, (S)-4-((2-methoxyethyl) (4-(5,6,7,8-tetrahydro-1,8-naphthyridin-2-yl)butyl)amino)-2-(pyrido[3,2-d]pyrimidin-4-ylamino) butanoic acid]
< 50	COCCN(CCCCc1ccc2c(n1)NCCC2)CC[C@H](Nc1ncnc2cnccc12)C(=O)O [Compound 17, (S)-4-((2-methoxyethyl) (4-(5,6,7,8-tetrahydro-1,8-naphthyridin-2-yl)butyl)amino)-2-(pyrido[3,4-d]pyrimidin-4-ylamino) butanoic acid]
< 50	COCCN(CCCCc1ccc2c(n1)NCCC2)CC[C@H](Nc1ncnc2cccc(F)c12)C(=O)O [Compound 18, (S)-2-((5-fluoroquinazolin-4-yl)amino)-4-((2-methoxyethyl) (4-(5,6,7,8-tetrahydro-1,8-naphthyridin-2-yl)butyl)amino) butanoic acid]
< 50	COCCN(CCCCc1ccc2c(n1)NCCC2)CC[C@H](Nc1ncnc2ccc(F)cc12)C(=O)O [Compound 19, (S)-2-((6-fluoroquinazolin-4-yl)amino)-4-((2-methoxyethyl) (4-(5,6,7,8-tetrahydro-1,8-naphthyridin-2-yl)butyl)amino) butanoic acid]
< 50	COCCN(CCCCc1ccc2c(n1)NCCC2)CC[C@H](Nc1ncnc2c(F)cccc12)C(=O)O [Compound 20, (S)-2-((8-fluoroquinazolin-4-yl)amino)-4-((2-methoxyethyl) (4-(5,6,7,8-tetrahydro-1,8-naphthyridin-2-yl)butyl)amino) butanoic acid]
